Legend:
late watergrass [1] = assay: Test Example 1: herbicidal activity, application before weed generation under submerged conditions (Table 16, symbol A); format: in vivo, late watergrass (Echinochloa oryzicola); settings: 320 g/ha applied herbicide
Method in brief: (§1)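 Submerged Wagner pots (alluvial soil, 4 cm water) sown with weed seeds and planted with 2.5-leaf rice seedlings; emulsifiable concentrate diluted in water applied to water surface on sowing day. Held in greenhouse at 25-30 °C; injury scored 0-5 by herbicidal rate after three weeks.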

Japanese bulrush [2] = assay: Test Example 1: herbicidal activity, application before weed generation under submerged conditions (Table 16, symbol B); format: in vivo, Japanese bulrush (Schoenoplectus juncoides); settings: 320 g/ha applied herbicide
Method in brief: as §1

oval-leafed pondweed [3] = assay: Test Example 1: herbicidal activity, application before weed generation under submerged conditions (Table 16, symbol C); format: in vivo, oval-leafed pondweed (Monochoria vaginalis); settings: 320 g/ha applied herbicide
Method in brief: as §1

Japanese bulrush [4] = assay: Test Example 2: herbicidal activity, application during weed generation under submerged conditions (Table 17, symbol B); format: in vivo, Japanese bulrush (Schoenoplectus juncoides); settings: AAH 320 g/ha; application during weed generation, submerged conditions
Method: (§2) [Test Example 2] Herbicidal Activity Test by Application during Weed Generation under Submerged Conditions After alluvial soil was placed into 1/10000 are of Wagner pot, water was poured and mixed to form a submerged condition having a water depth of 4 cm. Seeds of late watergrass, Japanese bulrush, and oval-leafed pondweed were sowed in a mixed manner in the aforementioned pot, and the pot was placed in a greenhouse at 25° C. to 30° C. for growth of the plants. When late watergrass, Japanese bulrush, and oval-leafed pondweed were grown to one leaf stage to two leaf stage, the emulsion agent of the compound of the present invention prepared according to Formulation Example 2 was diluted with water so as to achieve a predetermined herbicide amount, and the diluted emulsion agent was applied to the surface of the water. Three weeks after the herbicide application, the effect of the herbicide on each plant was evaluated according to the criteria of Test Example 1.

oval-leafed pondweed [5] = assay: Test Example 2: herbicidal activity, application during weed generation under submerged conditions (Table 17, symbol C); format: in vivo, oval-leafed pondweed (Monochoria vaginalis); settings: AAH 320 g/ha; application during weed generation, submerged conditions
Method: as §2

barnyard grass [6] = assay: Test Example 3: herbicidal effect by foliage application, Wagner pot (Table 18, symbol H); format: in vivo, barnyard grass (Echinochloa crus-galli); settings: 320 g/ha
Method in brief: (§3)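 Plants were sown in alluvial soil held under 0.1–0.5 cm standing water and grown 14 days in a greenhouse at 25–30 °C. An emulsifiable formulation, water-diluted to the set dose, was then sprayed onto the foliage, and effects were scored three weeks later using previously defined criteria.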

Chinese sprangletop = assay: Test Example 3: herbicidal effect by foliage application, Wagner pot (Table 18, symbol D); format: in vivo, chinese sprangletop (Leptochloa chinensis); settings: 320 g/ha
Method in brief: as §3

rice flat sedge = assay: Test Example 3: herbicidal effect by foliage application, Wagner pot (Table 18, symbol E); format: in vivo, rice flat sedge (Cyperus iria); settings: 320 g/ha
Method in brief: as §3

southern crabgrass [7] = assay: Test Example 4: herbicidal effect by soil treatment (Table 19, symbol F); format: in vivo, southern crabgrass (Digitaria ciliaris); settings: amount of applied herbicide 320 g/ha
Method in brief: (§4)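 Herbicidal effect was rated 3 weeks after treatment, using the scoring criteria of an earlier test. The compound, formulated as an emulsion and diluted in water to a set herbicide amount, had been sprayed uniformly on soil over freshly sown seeds. Growth took place in a greenhouse at 25° C. to 30° C.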

green foxtail [8] = assay: Test Example 4: herbicidal effect by soil treatment (Table 19, symbol G); format: in vivo, green foxtail (Setaria viridis); settings: amount of applied herbicide 320 g/ha
Method in brief: as §4

barnyard grass [9] = assay: Test Example 4: herbicidal effect by soil treatment (Table 19, symbol H); format: in vivo, barnyard grass (Echinochloa crus-galli); settings: amount of applied herbicide 320 g/ha
Method in brief: as §4

wild oat [10] = assay: Test Example 4: herbicidal effect by soil treatment (Table 19, symbol I); format: in vivo, wild oat (Avena fatua); settings: amount of applied herbicide 320 g/ha
Method in brief: as §4

blackgrass [11] = assay: Test Example 4: herbicidal effect by soil treatment (Table 19, symbol J); format: in vivo, blackgrass (Alopecurus myosuroides); settings: amount of applied herbicide 320 g/ha
Method in brief: as §4

Italian ryegrass [12] = assay: Test Example 4: herbicidal effect by soil treatment (Table 19, symbol K); format: in vivo, Italian ryegrass (Lolium multiflorum); settings: amount of applied herbicide 320 g/ha
Method in brief: as §4

velvetleaf [13] = assay: Test Example 4: herbicidal effect by soil treatment (Table 19, symbol M); format: in vivo, velvetleaf (Abutilon theophrasti); settings: amount of applied herbicide 320 g/ha
Method in brief: as §4

redroot pigweed [14] = assay: Test Example 4: herbicidal effect by soil treatment (Table 19, symbol N); format: in vivo, redroot pigweed (Amaranthus retroflexus); settings: amount of applied herbicide 320 g/ha
Method in brief: as §4

southern crabgrass [15] = assay: Test Example 5: herbicidal effect by foliage application, plastic box (Table 20, symbol F); format: in vivo, southern crabgrass (Digitaria ciliaris); settings: 320 g/ha
Method in brief: (§5)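 Foliar spray test: emulsion formulation diluted in water to a set application rate, sprayed onto 14-day-old plants raised in diluvial soil at 25° C to 30° C under glass. Both herbicidal effect and crop effect rated visually three weeks later.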

green foxtail [16] = assay: Test Example 5: herbicidal effect by foliage application, plastic box (Table 20, symbol G); format: in vivo, green foxtail (Setaria viridis); settings: 320 g/ha
Method in brief: as §5

barnyard grass [17] = assay: Test Example 5: herbicidal effect by foliage application, plastic box (Table 20, symbol H); format: in vivo, barnyard grass (Echinochloa crus-galli); settings: 320 g/ha
Method in brief: as §5

wild oat [18] = assay: Test Example 5: herbicidal effect by foliage application, plastic box (Table 20, symbol I); format: in vivo, wild oat (Avena fatua); settings: foliage application, 320 g/ha, three weeks after application
Method in brief: as §5

blackgrass [19] = assay: Test Example 5: herbicidal effect by foliage application, plastic box (Table 20, symbol J); format: in vivo, blackgrass (Alopecurus myosuroides); settings: foliage application, 320 g/ha, three weeks after application
Method in brief: as §5

Italian ryegrass [20] = assay: Test Example 5: herbicidal effect by foliage application, plastic box (Table 20, symbol K); format: in vivo, Italian ryegrass (Lolium multiflorum); settings: foliage application, 320 g/ha, three weeks after application
Method in brief: as §5

windgrass = assay: Test Example 5: herbicidal effect by foliage application, plastic box (Table 20, symbol L); format: in vivo, windgrass (Apera spica-venti); settings: foliage application, 320 g/ha, three weeks after application
Method in brief: as §5

velvetleaf [21] = assay: Test Example 5: herbicidal effect by foliage application, plastic box (Table 20, symbol M); format: in vivo, velvetleaf (Abutilon theophrasti); settings: 320 g/ha
Method in brief: as §5

redroot pigweed [22] = assay: Test Example 5: herbicidal effect by foliage application, plastic box (Table 20, symbol N); format: in vivo, redroot pigweed (Amaranthus retroflexus); settings: 320 g/ha
Method in brief: as §5

lambsquarters [23] = assay: Test Example 5: herbicidal effect by foliage application, plastic box (Table 20, symbol O); format: in vivo, lambsquarters (Chenopodium album); settings: 320 g/ha
Method in brief: as §5

chickweed = assay: Test Example 5: herbicidal effect by foliage application, plastic box (Table 20, symbol P); format: in vivo, common chickweed (Stellaria media); settings: foliage application, 320 g/ha, three weeks after application
Method in brief: as §5

persian speedwell = assay: Test Example 5: herbicidal effect by foliage application, plastic box (Table 20, symbol R); format: in vivo, Persian speedwell (Veronica persica); settings: foliage application, 320 g/ha, three weeks after application
Method in brief: as §5

late watergrass [24] = assay: Test Example 2: herbicidal activity, application during weed generation under submerged conditions (Table 17, symbol A); format: in vivo, late watergrass (Echinochloa oryzicola); settings: AAH 320 g/ha; application during weed generation, submerged conditions
Method: as §2

lambsquarters [25] = assay: Test Example 4: herbicidal effect by soil treatment (Table 19, symbol O); format: in vivo, lambsquarters (Chenopodium album); settings: amount of applied herbicide 320 g/ha
Method in brief: as §4

[26] = foliage application, three weeks after application
[27] = foliage application after 14-day growth, evaluated three weeks after application

Compound: CCOc1ccc(-c2sc3ccccc3c2-c2c(O)c(C)nn(C)c2=O)cc1 [1-013]
- Herbicidal effect on A: late watergrass (grade 0-5) (late watergrass [1]): 4 (Herbicidal rate of 70% or more and less than 90%)
- Herbicidal effect on B: Japanese bulrush (grade 0-5) (Japanese bulrush [2]): 4 (Herbicidal rate of 70% or more and less than 90%)
- Herbicidal effect on C: oval-leafed pondweed (grade 0-5) (oval-leafed pondweed [3]): 3 (Herbicidal rate of 40% or more and less than 70%)
- herbicidal effect rating, B: Japanese bulrush (Japanese bulrush [4]): 3 (Herbicidal rate of 40% or more and less than 70%)
- herbicidal effect rating, C: oval-leafed pondweed (oval-leafed pondweed [5]): 3 (Herbicidal rate of 40% or more and less than 70%)
- herbicidal effect on H (barnyard grass), rating 0-5 (barnyard grass [6]): 5 (Herbicidal rate of 90% or more (almost completely withered))
- herbicidal effect on D (Chinese sprangletop), rating 0-5 (Chinese sprangletop): 1 (Herbicidal rate of 5% or more and less than 20%)
- herbicidal effect on E (rice flat sedge), rating 0-5 (rice flat sedge): 5 (Herbicidal rate of 90% or more (almost completely withered))
- herbicidal effect rating, F: southern crabgrass (southern crabgrass [7]): 0 (Herbicidal rate of 5% or less (almost no effect))
- herbicidal effect rating, G: green foxtail (green foxtail [8]): 5 (Herbicidal rate of 90% or more (almost completely withered))
- herbicidal effect rating, H: barnyard grass (barnyard grass [9]): 4 (Herbicidal rate of 70% or more and less than 90%)
- herbicidal effect rating, I: wild oat (wild oat [10]): 0 (Herbicidal rate of 5% or less (almost no effect))
- herbicidal effect rating, J: blackgrass (blackgrass [11]): 0 (Herbicidal rate of 5% or less (almost no effect))
- herbicidal effect rating, K: Italian ryegrass (Italian ryegrass [12]): 0 (Herbicidal rate of 5% or less (almost no effect))
- herbicidal effect rating, M: velvetleaf (velvetleaf [13]): 0 (Herbicidal rate of 5% or less (almost no effect))
- herbicidal effect rating, N: redroot pigweed (redroot pigweed [14]): 3 (Herbicidal rate of 40% or more and less than 70%)
- herbicidal effect grade, F: southern crabgrass (southern crabgrass [15]; [26]): 0 (Herbicidal rate of 5% or less (almost no effect))
- herbicidal effect grade, G: green foxtail (green foxtail [16]; [26]): 5 (Herbicidal rate of 90% or more (almost completely withered))
- herbicidal effect grade, H: barnyard grass (barnyard grass [17]; [26]): 4 (Herbicidal rate of 70% or more and less than 90%)
- herbicidal effect grade, I: wild oat (wild oat [18]): 0 (Herbicidal rate of 5% or less (almost no effect))
- herbicidal effect grade, J: blackgrass (blackgrass [19]): 0 (Herbicidal rate of 5% or less (almost no effect))
- herbicidal effect grade, K: Italian ryegrass (Italian ryegrass [20]): 3 (Herbicidal rate of 40% or more and less than 70%)
- herbicidal effect grade, L: windgrass (windgrass): 0 (Herbicidal rate of 5% or less (almost no effect))
- herbicidal effect grade, M: velvetleaf (velvetleaf [21]; [26]): 5 (Herbicidal rate of 90% or more (almost completely withered))
- herbicidal effect grade, N: redroot pigweed (redroot pigweed [22]; [26]): 3 (Herbicidal rate of 40% or more and less than 70%)
- herbicidal effect grade, O: lambsquarters (lambsquarters [23]; [26]): 3 (Herbicidal rate of 40% or more and less than 70%)
- herbicidal effect grade, P: chickweed (chickweed): 5 (Herbicidal rate of 90% or more (almost completely withered))
- herbicidal effect grade, R: persian speedwell (persian speedwell): 5 (Herbicidal rate of 90% or more (almost completely withered))

Compound: COc1ccc2c(-c3c(O)c(C)nn(C)c3=O)c(-c3ccc(OC(F)(F)F)cc3)sc2c1 [3-170]
- herbicidal effect rating, A: late watergrass (late watergrass [24]): 2 (Herbicidal rate of 20% or more and less than 40%)
- herbicidal effect rating, B: Japanese bulrush (Japanese bulrush [4]): 0 (Herbicidal rate of 5% or less (almost no effect))
- herbicidal effect rating, C: oval-leafed pondweed (oval-leafed pondweed [5]): 0 (Herbicidal rate of 5% or less (almost no effect))
- herbicidal effect on barnyard grass (H) (barnyard grass [6]): 3 (Herbicidal rate of 40% or more and less than 70%)
- herbicidal effect on Chinese sprangletop (D) (Chinese sprangletop): 0 (Herbicidal rate of 5% or less (almost no effect))
- herbicidal effect on rice flat sedge (E) (rice flat sedge): 0 (Herbicidal rate of 5% or less (almost no effect))
- Herbicidal effect by soil treatment, F: southern crabgrass (southern crabgrass [7]): 0 (Herbicidal rate of 5% or less (almost no effect))
- Herbicidal effect by soil treatment, G: green foxtail (green foxtail [8]): 0 (Herbicidal rate of 5% or less (almost no effect))
- Herbicidal effect by soil treatment, H: barnyard grass (barnyard grass [9]): 0 (Herbicidal rate of 5% or less (almost no effect))
- Herbicidal effect by soil treatment, M: velvetleaf (velvetleaf [13]): 0 (Herbicidal rate of 5% or less (almost no effect))
- Herbicidal effect by soil treatment, N: redroot pigweed (redroot pigweed [14]): 4 (Herbicidal rate of 70% or more and less than 90%)
- Herbicidal effect by soil treatment, O: lambsquarters (lambsquarters [25]): 1 (Herbicidal rate of 5% or more and less than 20%)
- herbicidal effect on F: southern crabgrass (evaluation grade 0-5) (southern crabgrass [15]; [27]): 0 (Herbicidal rate of 5% or less (almost no effect))
- herbicidal effect on G: green foxtail (evaluation grade 0-5) (green foxtail [16]; [27]): 0 (Herbicidal rate of 5% or less (almost no effect))
- herbicidal effect on H: barnyard grass (evaluation grade 0-5) (barnyard grass [17]; [27]): 0 (Herbicidal rate of 5% or less (almost no effect))
- herbicidal effect on M: velvetleaf (evaluation grade 0-5) (velvetleaf [21]; [27]): 3 (Herbicidal rate of 40% or more and less than 70%)
- herbicidal effect on N: redroot pigweed (evaluation grade 0-5) (redroot pigweed [22]; [27]): 4 (Herbicidal rate of 70% or more and less than 90%)
- herbicidal effect on O: lambsquarters (evaluation grade 0-5) (lambsquarters [23]; [27]): 5 (Herbicidal rate of 90% or more (almost completely withered))

Source: patent US20230085307A1, “PYRIDAZINONE COMPOUND AND HERBICIDE” (NISSAN CHEMICAL CORPORATION, priority 2019, published 2023)
